Experimental data from PMC10498667 (Chemical Science, 2023).

Key:
[1] = tested on: human neuroblastoma SH-SY5Y (5Y) cells; assay: Cellular ROS detection assay (prooxidant activity); type: cell-based
Experimental: Cellular ROS Detection Assay. The prooxidant activity of flavonoids in living cells was measured by a cellular ROS detection assay kit (Abcam) following the manufacturer ’s protocol. The human neuroblastoma 5Y cells were maintained in media containing 50% v/v Dulbecco's Modified Eagle Medium and 50% v/v Nutrient Mixture F12 (phenol red-free DMEM/F12; GIBCO, Grand Island, NY, USA) supplemented with 10% v/v fetal bovine serum (GIBCO) and 100 U/mL penicillin-streptomycin (GIBCO). The cells were grown and maintained at 37 °C in a humidified atmosphere with 5% CO2. Cells were seeded in a 96-well plate (50,000 cells/100 µL). After 24 h incubation, a ROS-staining working solution (100 µL) was added to each well and the plate was incubated for 1 h at 37 °C. Cells were then treated with the samples {[flavonoid] = 0.01, 0.1, 0.5, and 1 mM (1% v/v DMSO)}. The cellular ROS levels upon the treatment of samples were measured based on the fluorescence intensity (lex/lem = 520/605 nm) of the wells that was detected after 2 h incubation and calculated, relative to that of the cells containing an equivalent amount of DMSO.
All experiments were performed in triplicate.

Aβ42 = biological target: T1, Aβ42 (Homo sapiens, UniProt P05067); assay: Additional disaggregation experiments (preformed aggregates or seeds with Aβ monomers); type: biochemical; conditions: metal-free Aβ42 and metal–Aβ42; flavonoid 50 μM
T1 construct: purchased Peptide Institute, Inc. (Osaka, Japan)
Experimental: To probe the secondary nucleation of disassembled Aβ aggregates induced by the flavonoids on Aβ monomers, additional disaggregation experiments were conducted by incubating preformed aggregates of metal-free and metal-treated Aβ or their seeds with Aβ monomers. […] These indications describe the significance of three hydroxyl groups on the A ring in the flavonoid structure to impact the aggregation of metal-free Aβ and metal–Aβ. […]
Ab Aggregation Experiments. Ab was dissolved in ammonium hydroxide [1% w/w NH4OH (aq)] and the resulting solution was aliquoted, lyophilized overnight, and stored at –80 °C. A stock solution of Ab was then prepared by dissolving the lyophilized peptide with NH4OH (1% w/w, aq; 10 µL) and diluting with ddH2O. All Ab samples were prepared following previously reported procedures.21,22 The concentration of the peptide solution was determined by measuring its […]
solution (20 mM HEPES, pH 7.4, 150 mM NaCl) was used for preparing Ab samples. […]
For the disaggregation studies, Ab (25 µM) was incubated with and without CuCl2 or ZnCl2 (25 µM) for 24 h at 37 °C with constant agitation to generate preformed Ab aggregates. The resultant Ab aggregates were then treated with flavonoids (50 µM) and incubated for additional 24 h with constant agitation. For the additional disaggregation experiments, preformed Ab42 aggregates (25 µM) or Ab42 seeds (10% v/v) with or without metal ions (25 µM for CuCl2 and ZnCl2) were incubated with flavonoids (50 µM) for 24 h with constant agitation. The resultant Ab aggregates were then treated with freshly prepared Ab42 […]
(25 µM) and incubated for additional 24 h with constant agitation.
Gel/Western Blot. The resultant Ab species from the aggregation experiments were analyzed by gel/Western blot using an anti-Ab antibody (6E10, Covance, Princeton, NJ, USA).21,22 Each sample (10 µL) was separated on a 10–20% tricine gel (Invitrogen). Following separation, the proteins were transferred onto nitrocellulose membranes and blocked with bovine serum albumin (BSA, 3% w/v; Sigma-Aldrich) in Tris-buffered saline (TBS) containing 0.1% v/v Tween-20 (Sigma-Aldrich) (TBS-T) for 4 h at room temperature or overnight at 4 °C. The membranes were incubated with 6E10 (1:2,000) in the solution of BSA (2% w/v in TBS-T) for 4 h at room temperature. […] A homemade ECL kit21–23 was used to visualize gel/Western blots on a ChemiDoc MP Imaging System (Bio-Rad).
TEM. […]
Cu(II)-binding Studies. The interaction of flavonoids with Cu(II) was detected by Abs spectroscopy in 20 mM HEPES, pH 7.4, 150 mM NaCl. […] The mixture solution was allowed to equilibrate for 5 min after the addition of CuCl2 at room temperature before the spectra were recorded. […]

T1 sequence (P05067 672-713 limits assumed): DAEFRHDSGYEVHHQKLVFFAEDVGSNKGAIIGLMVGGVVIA

| Compound | cellular ROS concentration / prooxidative activity ([1]; 0.01 and 0.1 mM flavonoid) | cellular ROS concentration / prooxidative activity ([1]; 0.5 and 1 mM flavonoid) | MW distribution after incubating treated preformed aggregates or seeds with Aβ monomers (secondary nucleation) (Aβ42) |
| --- | --- | --- | --- |
| O=c1c(-c2ccccc2)coc2cc(O)c(O)c(O)c12 [4b, 5,6,7-trihydroxyisoflavone] | no elevation of the cellular ROS concentration | the prooxidative activity was observed | notable variations in the MW distribution |
| O=c1cc(-c2ccccc2)oc2ccc(O)c(O)c12 [compound 3, 5,6-dihydroxyflavone] |  |  | reactivity specifically towards metal–Aβ42 species |
| O=c1cc(-c2ccccc2)oc2cc(O)c(O)c(O)c12 [compound 4, baicalein] |  |  | notable variations in the MW distribution |
| O=c1cc(-c2ccccc2)oc2c(Cl)c(O)c(O)c(O)c12 [compound 5, 8-chlorobaicalein] |  |  | notable variations in the MW distribution |
| O=c1c(-c2ccc(O)c(O)c2)coc2cc(O)c(O)c(O)c12 [compound 6, 3-(3,4-dihydroxyphenyl)-5,6,7-trihydroxy-4H-chromen-4-one] | No prooxidative activity | increase in the amount of cellular ROS |  |
